Results as given in ChEMBL document CHEMBL1649315, “Extended-spectrum cephalosporinase in Acinetobacter baumannii” (Antimicrob Agents Chemother, 2010).
Converted amounts (≈) assume the structure as drawn.

How the values were obtained:
Escherichia coli [1] = test: Antimicrobial activity against Escherichia coli TOP10 harboring pADC-11 plasmid carrying entire blaAmpC gene with alanine residue insertion at 215 position by Etest method; assay type: functional
Acinetobacter baumannii [2] = test: Antimicrobial activity against Acinetobacter baumannii KI by Etest method; assay type: functional
Acinetobacter baumannii [3] = test: Antimicrobial activity against Acinetobacter baumannii CIP70.10 by Etest method; assay type: functional
Escherichia coli [4] = test: Antimicrobial activity against Escherichia coli TOP10 harboring pADC-11 plasmid by Etest method; assay type: functional
Escherichia coli [5] = test: Antimicrobial activity against Escherichia coli TOP10 harboring pADC-33 plasmid with entire blaAmpC gene by Etest method; assay type: functional
Escherichia coli [6] = test: Antimicrobial activity against Escherichia coli TOP10 harboring pADC-11 plasmid with entire blaAmpC gene by Etest method; assay type: functional
Escherichia coli [7] = test: Antimicrobial activity against Escherichia coli TOP10 harboring pTOPO plasmid by Etest method; assay type: functional
Escherichia coli [8] = test: Antimicrobial activity against Escherichia coli TOP10 harboring pADC-33 plasmid with entire blaAmpC gene with alanine residue deletion at 215 position by Etest method; assay type: functional
Escherichia coli [9] = test: Antimicrobial activity against Escherichia coli TOP10 harboring pADC-33 plasmid carrying entire blaAmpC gene with alanine residue deletion at 215 position and R210P substitution by Etest method; assay type: functional
Escherichia coli [10] = test: Antimicrobial activity against Escherichia coli TOP10 harboring pADC-33 plasmid by Etest method; assay type: functional
Acinetobacter baumannii [11] = test: Ratio of Kcat to Km for Acinetobacter baumannii ADC-33 beta-lactamase to Kcat to Km for Acinetobacter baumannii ADC-11 beta-lactamase
Acinetobacter baumannii [12] = test: Antimicrobial activity against Acinetobacter baumannii AYE expressing VEB-1 gene by Etest method; assay type: functional
Escherichia coli [13] = test: Antimicrobial activity against Escherichia coli TOP10 harboring pADC-50 plasmid by Etest method; assay type: functional
Escherichia coli [14] = test: Antimicrobial activity against Escherichia coli TOP10 harboring pADC-11 plasmid carrying entire blaAmpC gene with alanine residue insertion at 215 position and R210P substitution by Etest method; assay type: functional
Escherichia coli [15] = test: Antimicrobial activity against Escherichia coli TOP10 harboring pADC-11 plasmid by Etest method in presence of clavulanic acid; assay type: functional
Escherichia coli [16] = test: Antimicrobial activity against Escherichia coli TOP10 harboring pADC-33 plasmid carrying entire blaAmpC gene with alanine residue deletion at 215 position by Etest method in presence of clavulanic acid; assay type: functional
Escherichia coli [17] = test: Antimicrobial activity against Escherichia coli TOP10 harboring pADC-11 plasmid carrying entire blaAmpC gene with alanine residue insertion at 215 position by Etest method in presence of clavulanic acid; assay type: functional
Escherichia coli [18] = test: Antimicrobial activity against Escherichia coli TOP10 harboring pADC-33 plasmid carrying entire blaAmpC gene with alanine residue deletion at 215 position and R210P substitution by Etest method in presence of clavulanic acid; assay type: functional
Escherichia coli [19] = test: Antimicrobial activity against Escherichia coli TOP10 harboring pTOPO plasmid by Etest method in presence of clavulanic acid; assay type: functional
Acinetobacter baumannii [20] = test: Antimicrobial activity against Acinetobacter baumannii CIP70.10 by Etest method in presence of clavulanic acid; assay type: functional
Acinetobacter baumannii [21] = test: Antimicrobial activity against Acinetobacter baumannii AYE expressing VEB-1 gene by Etest method in presence of clavulanic acid; assay type: functional
Escherichia coli [22] = test: Antimicrobial activity against Escherichia coli TOP10 harboring pADC-33 plasmid by Etest method in presence of clavulanic acid; assay type: functional
Escherichia coli [23] = test: Antimicrobial activity against Escherichia coli TOP10 harboring pADC-11 plasmid carrying entire blaAmpC gene with alanine residue deletion at 215 position and R210P substitution by Etest method in presence of clavulanic acid; assay type: functional
Escherichia coli [24] = test: Antimicrobial activity against Escherichia coli TOP10 harboring pADC-33 plasmid carrying entire blaAmpC gene by Etest method in presence of clavulanic acid; assay type: functional
Escherichia coli [25] = test: Antimicrobial activity against Escherichia coli TOP10 harboring pADC-50 plasmid by Etest method in presence of clavulanic acid; assay type: functional
Escherichia coli [26] = test: Antimicrobial activity against Escherichia coli TOP10 harboring pADC-11 plasmid carrying entire blaAmpC gene by Etest method in presence of clavulanic acid; assay type: functional
Acinetobacter baumannii [27] = test: Antimicrobial activity against Acinetobacter baumannii KI by Etest method in presence of clavulanic acid; assay type: functional
[28] = system: CO[C@@]1(NC(=O)Cc2cccs2)C(=O)N2C(C(=O)O)=C(COC(N)=O)CS[C@@H]21; test: (§1) Ratio of Kcat to Ki for Acinetobacter baumannii ADC-33 beta-lactamase
[29] = system: CO/N=C(\C(=O)N[C@@H]1C(=O)N2C(C(=O)O)=C(COC(C)=O)CS[C@H]12)c1csc(N)n1; test: as §1
[30] = system: CCN1CCN(C(=O)N[C@@H](C(=O)N[C@@H]2C(=O)N3[C@@H]2SC(C)(C)[C@@H]3C(=O)O)c2ccccc2)C(=O)C1=O; test: (§2) Activity of Acinetobacter baumannii ADC-33 beta-lactamase
[31] = system: CO[C@@]1(NC(=O)Cc2cccs2)C(=O)N2C(C(=O)O)=C(COC(N)=O)CS[C@@H]21; test: as §2
[32] = system: CC(=O)OCC1=C(C(=O)O)N2C(=O)[C@@H](NC(=O)Cc3cccs3)[C@H]2SC1; test: as §2
[33] = system: CC(C)(O/N=C(\C(=O)N[C@@H]1C(=O)N2C(C(=O)[O-])=C(C[n+]3ccccc3)CS[C@H]12)c1csc(N)n1)C(=O)O; test: as §2
[34] = system: CC1(C)S[C@@H]2[C@H](NC(=O)[C@H](N)c3ccccc3)C(=O)N2[C@H]1C(=O)O; test: as §2
[35] = system: CO/N=C(\C(=O)N[C@@H]1C(=O)N2C(C(=O)[O-])=C(C[n+]3cccc4c3CCC4)CS[C@H]12)c1csc(N)n1; test: as §2
[36] = system: O=C(Cc1cccs1)N[C@@H]1C(=O)N2C(C(=O)[O-])=C(C[n+]3ccccc3)CS[C@H]12; test: as §2
[37] = system: CC1(C)S[C@@H]2[C@H](NC(=O)Cc3ccccc3)C(=O)N2[C@H]1C(=O)O; test: as §2
[38] = system: CCN1CCN(C(=O)N[C@@H](C(=O)N[C@@H]2C(=O)N3[C@@H]2SC(C)(C)[C@@H]3C(=O)O)c2ccccc2)C(=O)C1=O; test: (§3) Ratio of Kcat to Km for Acinetobacter baumannii ADC-33 beta-lactamase
[39] = system: CC(=O)OCC1=C(C(=O)O)N2C(=O)[C@@H](NC(=O)Cc3cccs3)[C@H]2SC1; test: as §3
[40] = system: CC1(C)S[C@@H]2[C@H](NC(=O)[C@H](N)c3ccccc3)C(=O)N2[C@H]1C(=O)O; test: as §3
[41] = system: CO/N=C(\C(=O)N[C@@H]1C(=O)N2C(C(=O)[O-])=C(C[n+]3cccc4c3CCC4)CS[C@H]12)c1csc(N)n1; test: as §3
[42] = system: O=C(Cc1cccs1)N[C@@H]1C(=O)N2C(C(=O)[O-])=C(C[n+]3ccccc3)CS[C@H]12; test: as §3
[43] = system: CC1(C)S[C@@H]2[C@H](NC(=O)Cc3ccccc3)C(=O)N2[C@H]1C(=O)O; test: as §3

In the case of `C[C@@H](O)[C@H]1C(=O)N2C(C(=O)O)=C(SCCNC=N)C[C@H]12` [IMIPENEM ANHYDROUS], the MIC (Escherichia coli [1]) is reported as 0.38 µg/mL (≈ 1.27 µM), the MIC (Acinetobacter baumannii [2]) is reported as 2 µg/mL (≈ 6.68 µM) and the MIC (Acinetobacter baumannii [3]) is reported as 0.25 µg/mL (≈ 0.835 µM). For the same molecule, the MIC (Escherichia coli [4]) was 0.19 µg/mL (≈ 0.635 µM), the MIC (Escherichia coli [5]) was 0.5 µg/mL (≈ 1.67 µM) and the MIC (Escherichia coli [6]) was 0.38 µg/mL (≈ 1.27 µM). The MIC (Escherichia coli [7]) was 0.125 µg/mL (≈ 0.418 µM), the MIC (Escherichia coli [8]) was 0.5 µg/mL (≈ 1.67 µM) and the MIC (Escherichia coli [9]) was 0.25 µg/mL (≈ 0.835 µM). The MIC (Escherichia coli [10]) was 0.25 µg/mL (≈ 0.835 µM), the kcat/Km (Acinetobacter baumannii [11]) was 800000 M⁻¹ s⁻¹ and the MIC (Acinetobacter baumannii [12]) was 1 µg/mL (≈ 3.34 µM).

In the case of `C[C@@H](O)[C@H]1C(=O)N2C(C(=O)O)=C(S[C@@H]3CN[C@H](C(=O)N(C)C)C3)[C@H](C)[C@H]12` [MEROPENEM], the MIC (Escherichia coli [1]) is reported as 0.032 µg/mL (≈ 0.0834 µM), the MIC (Acinetobacter baumannii [2]) is reported as 2 µg/mL (≈ 5.22 µM) and the MIC (Acinetobacter baumannii [3]) is reported as 0.25 µg/mL (≈ 0.652 µM). For the same molecule, the MIC (Escherichia coli [13]) was 0.023 µg/mL (≈ 0.06 µM), the MIC (Escherichia coli [4]) was 0.023 µg/mL (≈ 0.06 µM) and the MIC (Escherichia coli [5]) was 0.032 µg/mL (≈ 0.0834 µM). The MIC (Escherichia coli [6]) was 0.032 µg/mL (≈ 0.0834 µM), the MIC (Escherichia coli [7]) was 0.023 µg/mL (≈ 0.06 µM) and the MIC (Escherichia coli [8]) was 0.032 µg/mL (≈ 0.0834 µM). The MIC (Escherichia coli [9]) was 0.032 µg/mL (≈ 0.0834 µM), the MIC (Escherichia coli [10]) was 0.023 µg/mL (≈ 0.06 µM) and the MIC (Escherichia coli [14]) was 0.032 µg/mL (≈ 0.0834 µM). For the same molecule, the MIC (Acinetobacter baumannii [12]) was 1 µg/mL (≈ 2.61 µM).

Work on `CC1(C)S[C@@H]2[C@H](NC(=O)[C@H](C(=O)O)c3ccsc3)C(=O)N2[C@H]1C(=O)O` [TICARCILLIN] yielded an MIC (Escherichia coli [1]) greater than 256 µg/mL, an MIC (Acinetobacter baumannii [2]) greater than 256 µg/mL and an MIC (Escherichia coli [15]) of 8 µg/mL. It also gave an MIC (Escherichia coli [16]) of 128 µg/mL, an MIC (Acinetobacter baumannii [3]) of 8 µg/mL (≈ 20.8 µM) and an MIC (Escherichia coli [17]) greater than 256 µg/mL. For the same molecule, the MIC (Escherichia coli [13]) was 8 µg/mL (≈ 20.8 µM), the MIC (Escherichia coli [4]) was 8 µg/mL (≈ 20.8 µM) and the MIC (Escherichia coli [18]) was 128 µg/mL. It also gave an MIC (Escherichia coli [19]) of 2 µg/mL, an MIC (Escherichia coli [5]) greater than 256 µg/mL and an MIC (Escherichia coli [6]) of 256 µg/mL (≈ 666 µM). It also gave an MIC (Escherichia coli [7]) of 2 µg/mL (≈ 5.2 µM), an MIC (Escherichia coli [8]) of 128 µg/mL (≈ 333 µM) and an MIC (Acinetobacter baumannii [20]) of 8 µg/mL. For the same molecule, the MIC (Escherichia coli [9]) was 128 µg/mL (≈ 333 µM), the MIC (Acinetobacter baumannii [21]) was 128 µg/mL and the MIC (Escherichia coli [22]) was 64 µg/mL. For the same molecule, the MIC (Escherichia coli [10]) was 64 µg/mL (≈ 166 µM), the MIC (Escherichia coli [23]) was greater than 256 µg/mL and the MIC (Escherichia coli [24]) was greater than 256 µg/mL. The MIC (Escherichia coli [25]) was 8 µg/mL, the MIC (Escherichia coli [26]) was 256 µg/mL and the MIC (Escherichia coli [14]) was greater than 256 µg/mL. For the same molecule, the MIC (Acinetobacter baumannii [12]) was greater than 256 µg/mL and the MIC (Acinetobacter baumannii [27]) was 64 µg/mL.

“Beta-lactamase ADC-33 (Acinetobacter baumannii) (from UniProt B2ZTR6)” gave a kcat/Km [28] of 3e+06 M⁻¹ s⁻¹, a kcat/Km [29] of 2e+06 M⁻¹ s⁻¹ and a Km [30] of 16 µM. It also gave a kcat [30] of 4 s⁻¹, a kcat [31] of 0.3 s⁻¹ and a Km [32] of 120 µM. It also gave a kcat [32] of 140 s⁻¹, a Km [33] of 30 µM and a kcat [33] of 4 s⁻¹. It also gave a Km [34] of 9 µM, a kcat [34] of 4 s⁻¹ and a Km [35] of 700 µM. It also gave a kcat [35] of 35 s⁻¹, a Km [36] of 100 µM and a kcat [36] of 220 s⁻¹. The Km [37] was 3 µM, the kcat/Km [38] was 250000 M⁻¹ s⁻¹ and the kcat/Km [39] was 1e+06 M⁻¹ s⁻¹. The kcat/Km [40] was 500000 M⁻¹ s⁻¹, the kcat/Km [41] was 50000 M⁻¹ s⁻¹ and the kcat/Km [42] was 2e+06 M⁻¹ s⁻¹. The kcat/Km [43] was 5e+06 M⁻¹ s⁻¹.
